Assay: Stability of cannabinoid compounds and Vitamin E components in Beverage 2 (AB Red) by LCMSMS
Type: physicochemical

Measured: Stability of Vitamin Es in AB Red

CC(=O)Oc1c(C)c(C)c2c(c1C)CCC(C)(CCC[C@H](C)CCC[C@H](C)CCCC(C)C)O2 (stereo partly drawn) [α-Tocopheryl acetate]
11.7 µg/mL: stored at 8° C., 29 days | stored at 8° C., 120 days | stored at 21-25° C., 3 days | stored at 21-25° C., 23 days
12.2 µg/mL: stored at 8° C., 8 days | stored at 21-25° C., 5 days
12.6 µg/mL: stored at 8° C., 10 days | stored at 8° C., 24 days | stored at 8° C., 180 days | stored at 21-25° C., 30 days
10.8 µg/mL: stored at 8° C., 540 days | stored at 8° C., 570 days
12.0 µg/mL: stored at 8° C., 15 days | stored at 21-25° C., 18 days | stored at 21-25° C., 19 days | stored at 21-25° C., 26 days | stored at 21-25° C., 180 days
10.6 µg/mL: stored at 8° C., 510 days | stored at 21-25° C., 540 days | stored at 21-25° C., 570 days
11.1 µg/mL: stored at 21-25° C., 360 days
11.2 µg/mL: stored at 8° C., 240 days | stored at 8° C., 300 days | stored at 8° C., 420 days | stored at 21-25° C., 300 days | stored at 21-25° C., 450 days
11.6 µg/mL: stored at 8° C., 1 days | stored at 8° C., 3 days | stored at 8° C., 26 days | stored at 8° C., 90 days | stored at 8° C., 270 days | stored at 21-25° C., 9 days | stored at 21-25° C., 60 days | stored at 21-25° C., 210 days | stored at 21-25° C., 330 days
11.8 µg/mL: stored at 8° C., 17 days | stored at 8° C., 210 days
11.5 µg/mL: stored at 8° C., 2 days | stored at 8° C., 16 days | stored at 21-25° C., 24 days
11.9 µg/mL: stored at 8° C., 11 days | stored at 8° C., 23 days | stored at 21-25° C., 29 days
12.5 µg/mL: stored at 8° C., 0 days | stored at 8° C., 18 days | stored at 8° C., 19 days | stored at 8° C., 22 days | stored at 21-25° C., 0 days | stored at 21-25° C., 2 days | stored at 21-25° C., 10 days
12.4 µg/mL: stored at 8° C., 12 days | stored at 21-25° C., 25 days
10.7 µg/mL: stored at 8° C., 480 days
10.4 µg/mL: stored at 21-25° C., 480 days | stored at 21-25° C., 510 days
12.3 µg/mL: stored at 8° C., 5 days | stored at 8° C., 25 days | stored at 8° C., 150 days | stored at 21-25° C., 11 days | stored at 21-25° C., 12 days | stored at 21-25° C., 90 days | stored at 21-25° C., 120 days
11.4 µg/mL: stored at 8° C., 60 days | stored at 8° C., 390 days | stored at 8° C., 450 days | stored at 21-25° C., 8 days | stored at 21-25° C., 150 days | stored at 21-25° C., 270 days
12.1 µg/mL: stored at 8° C., 9 days | stored at 8° C., 30 days | stored at 21-25° C., 1 days | stored at 21-25° C., 15 days | stored at 21-25° C., 16 days | stored at 21-25° C., 22 days
11.3 µg/mL: stored at 8° C., 330 days | stored at 8° C., 360 days | stored at 21-25° C., 17 days | stored at 21-25° C., 240 days | stored at 21-25° C., 390 days | stored at 21-25° C., 420 days
